Assay results published in US20220151999A1, “METHODS OF TREATING ATTENTION DEFICIT HYPERACTIVITY DISORDER USING KDM1A INHIBITORS SUCH AS THE COMPOUND VAFIDEMSTAT” (ORYZON GENOMICS, S.A., priority 2019, published 2022).

Columns and labels:
Assay type in all cases: in vivo, human
ADHD patients [1] = test: REIMAGINE Phase IIa trial, ADHD cohort: aggression by Clinical Global Impression (CGI-S, CGI-I) scales; conditions: adult ADHD patients (5 eligible), 1.2 mg/day oral, 5 days on/2 days off, 8 weeks
From the text: (§1) As part of a Phase IIa clinical trial (REIMAGINE trial, EudraCT number 2018-002140-88) to evaluate the safety, tolerability and efficacy of the KDM1A inhibitor vafidemstat to treat aggression in adult population in patients with different CNS disorders, a cohort of ADHD patients was recruited and treated with vafidemstat for 8 weeks. A summary of the protocol of this clinical trial and results obtained in the ADHD cohort are provided below.
(§2) Reimagine is a unicenter, open-label, 1-arm, 8-week clinical study to evaluate the efficacy, safety and tolerability of vafidemstat in aggression in adult population with Alzheimer's Disease (AD), Lewy Body Dementia (LBD), Adult attention Deficit Hyperactivity Disorder (ADHD), Borderline Personality Disorder (BPD) and Autism Spectrum Disorder (ASD). Six patients to be recruited per disorder. […]
(§3) Evaluation of the effect of treatment with vafidemstat on aggression was performed using the Clinical Global Impression (CGI) scale. […] In addition to assessing its effect on aggression, the effect of treatment with vafidemstat on ADHD patients was also evaluated using the Attention Deficit Hyperactivity Disorder Rating Scale (ADHD-RS), a validated scale that is specific for ADHD and is widely used to evaluate ADHD in adults. […] Each item is scored from 0 to 3 points, with the highest scores indicating the presence of problematic symptoms/behavior. […]

ADHD patients [2] = test: REIMAGINE Phase IIa trial, ADHD cohort: ADHD Rating Scale (ADHD-RS); conditions: adult ADHD patients (5 eligible), 1.2 mg/day oral, 5 days on/2 days off, 8 weeks; paired one-tail t-test p=0.0279
From the text: as §1, §2, §3

ADHD patients [3] = test: REIMAGINE Phase IIa trial, ADHD cohort: safety and tolerability; conditions: adult ADHD patients, 1.2 mg/day oral, 5 days on/2 days off, 8 weeks
From the text: as §1
Reimagine is a unicenter, open-label, 1-arm, 8-week clinical study to evaluate the efficacy, safety and tolerability of vafidemstat in aggression in adult population with Alzheimer's Disease (AD), Lewy Body Dementia (LBD), Adult attention Deficit Hyperactivity Disorder (ADHD), Borderline Personality Disorder (BPD) and Autism Spectrum Disorder (ASD). Six patients to be recruited per disorder.
Main objective of the trial: To evaluate the safety and tolerability of vafidemstat in adult population with Alzheimer's Disease (AD), Lewy Body Dementia (LBD), Adult attention deficit hyperactivity disorder (ADHD), Borderline Personality Disorder (BPD), Autism Spectrum Disorder (ASD)
Treatment: All patients received vafidemstat (as free base) at a dose of 1.2 mg/day, administered orally as a single capsule, in a 5 days on/2 days off schedule, during 8 weeks. […]

Question: `Nc1nnc(CN[C@@H]2C[C@H]2c2ccc(OCc3ccccc3)cc2)o1` [vafidemstat, 5-((((1R,2S)-2-(4-(benzyloxy)phenyl)cyclopropyl)amino)methyl)-1,3,4-oxadiazol-2-amine] was tested. Which “CGI-Severity (CGI-S) score, aggression, change from visit 1 (baseline) to visit 7” value (ADHD patients [1]; paired one-tail t-test p=0.0043) did it give?
Answer: statistically significant reductions

Question: What about the “CGI-Improvement (CGI-I) score, aggression, change from visit 1 (baseline) to visit 7” value (ADHD patients [1]; paired one-tail t-test p=0.0352) of the same compound?
Answer: statistically significant reductions

Question: And the “ADHD-RS score, change from visit 1 (baseline) to visit 7” value (ADHD patients [2])?
Answer: statistically significant reduction

Question: What about the “safety and tolerability of treatment” value (ADHD patients [3]) of the same compound?
Answer: safe and well tolerated, without significant adverse events
